In ChEMBL document CHEMBL1126376, “Synthesis and activities of 9-pyrrolo-9-deoxoerythromycin a analogs” (1992):
≈ marks a conversion by molar mass, not a printed value.

Assays:
Experiment in all cases: microbe, parasite or virus in culture
Type in all cases: functional
Enterococcus faecalis = system: Enterococcus faecalis
Description: In vitro minimum inhibitory concentration against Enterococcus faecalis (MB 5407) was determined

Streptococcus pyogenes = system: Streptococcus pyogenes
Description: In vitro minimum inhibitory concentration against Streptococcus pyogenes (MB 2874) was determined

Staphylococcus aureus = system: Staphylococcus aureus
Description: In vitro minimum inhibitory concentration against Staphylococcus aureus (MB 2865) was determined

[1] = system: Staphylococcus epidermidis
Description: In vitro minimum inhibitory concentration against Staphylococcus epidermidis (MB 5414) was determined

Streptococcus pneumoniae = system: Streptococcus pneumoniae
Description: In vitro minimum inhibitory concentration against Streptococcus pneumoniae (CL 2883) was determined

Haemophilus influenzae = system: Haemophilus influenzae
Description: In vitro minimum inhibitory concentration against Haemophilus influenzae (MB 5363) was determined

SMILES | MIC (Enterococcus faecalis) [µg/mL] | MIC (Streptococcus pyogenes) [µg/mL] | MIC (Staphylococcus aureus) [µg/mL] | MIC [1] [µg/mL] | MIC (Streptococcus pneumoniae) [µg/mL] | MIC (Haemophilus influenzae) [µg/mL]
CC[C@H]1OC(=O)[C@H](C)[C@@H](O[C@H]2C[C@@](C)(OC)[C@@H](O)[C@H](C)O2)[C@H](C)[C@@H](O[C@@H]2O[C@H](C)C[C@H](N(C)C)[C@H]2O)[C@](C)(O)C[C@@H](C)[C@@H](n2ccc(O)c2C(=O)OC(C)(C)C)[C@H](C)[C@@H](O)[C@]1(C)O | 64 (≈ 71 µM) | 8 (≈ 8.88 µM) | 64 (≈ 71 µM) | 64 (≈ 71 µM) | 16 (≈ 17.8 µM) | > 128
CC[C@H]1OC(=O)[C@H](C)[C@@H](O[C@H]2C[C@@](C)(OC)[C@@H](O)[C@H](C)O2)[C@H](C)[C@@H](O[C@@H]2O[C@H](C)C[C@H](N(C)C)[C@H]2O)[C@](C)(O)C[C@@H](C)[C@H](n2ccc(C=O)c2)[C@H](C)[C@@H](O)[C@]1(C)O | 64 (≈ 78.7 µM) | 32 (≈ 39.4 µM) | 32 (≈ 39.4 µM) | 32 (≈ 39.4 µM) | 64 (≈ 78.7 µM) | 64 (≈ 78.7 µM)
CC[C@H]1OC(=O)[C@H](C)[C@@H](O[C@H]2C[C@@](C)(OC)[C@@H](O)[C@H](C)O2)[C@H](C)[C@@H](O[C@@H]2O[C@H](C)C[C@H](N(C)C)[C@H]2O)[C@](C)(O)C[C@@H](C)[C@@H](n2cccc2)[C@H](C)[C@@H](O)[C@]1(C)O | 32 (≈ 40.8 µM) |  | 128 (≈ 163 µM) | 64 (≈ 81.5 µM) | 2 (≈ 2.55 µM) | > 128
CC[C@H]1OC(=O)[C@H](C)[C@@H](O[C@H]2C[C@@](C)(OC)[C@@H](O)[C@H](C)O2)[C@H](C)[C@@H](O[C@@H]2O[C@H](C)C[C@H](N(C)C)[C@H]2O)[C@](C)(O)C[C@@H](C)[C@H](n2cccc2)[C@H](C)[C@@H](O)[C@]1(C)O | 64 (≈ 81.5 µM) | 4 (≈ 5.1 µM) | 64 (≈ 81.5 µM) | 32 (≈ 40.8 µM) | 4 (≈ 5.1 µM) | 128 (≈ 163 µM)

Compounds with a lower MIC (Enterococcus faecalis), results first:

MIC (Enterococcus faecalis) [µg/mL] | MIC (Streptococcus pyogenes) [µg/mL] | MIC (Staphylococcus aureus) [µg/mL] | MIC [1] [µg/mL] | MIC (Streptococcus pneumoniae) [µg/mL] | MIC (Haemophilus influenzae) [µg/mL] | SMILES
16 (≈ 17.8 µM) | 0.25 (≈ 0.277 µM) | 8 (≈ 8.88 µM) | 4 (≈ 4.44 µM) | 0.5 (≈ 0.555 µM) | 32 (≈ 35.5 µM) | CC[C@H]1OC(=O)[C@H](C)[C@@H](O[C@H]2C[C@@](C)(OC)[C@@H](O)[C@H](C)O2)[C@H](C)[C@@H](O[C@@H]2O[C@H](C)C[C@H](N(C)C)[C@H]2O)[C@](C)(O)C[C@@H](C)[C@H](n2ccc(O)c2C(=O)OC(C)(C)C)[C@H](C)[C@@H](O)[C@]1(C)O
16 (≈ 19.7 µM) |  | 32 (≈ 39.4 µM) | 8 (≈ 9.84 µM) | 1 (≈ 1.23 µM) | 128 (≈ 157 µM) | CC[C@H]1OC(=O)[C@H](C)[C@@H](O[C@H]2C[C@@](C)(OC)[C@@H](O)[C@H](C)O2)[C@H](C)[C@@H](O[C@@H]2O[C@H](C)C[C@H](N(C)C)[C@H]2O)[C@](C)(O)C[C@@H](C)[C@@H](n2ccc(C=O)c2)[C@H](C)[C@@H](O)[C@]1(C)O
